Assay results from article PMC11480511 (Scientific Reports, 2024).

Legend:
Format in all cases: cell-based, human
[1] = system: melanoma LOX IMVI cell line; test: Cell cycle analysis, propidium iodide flow cytometry
Experimental: The effect of compound 3i on cell cycle progression of LOX IMVI cell line was evaluated using Propidium Iodide Flow Cytometry Kit to measure the DNA content according to the reported protocols. The LOX IMVI cells used in this work were obtained from the American Type Culture Collection. Cells were cultured in DMEM (Invitrogen/Life Technologies) supplemented with 10% FBS (Hyclone), 10 µg/ml insulin (Sigma), and 1% penicillin-streptomycin. The remaining chemicals and reagents were all from Sigma or Invitrogen. Growth media was removed, cells washed with warm PBS and aspirated. Adhered cells were detached from media by addition of 5 ml 10% trypsin/EDTA and incubated 2 min in the incubator. The suspended cells harvested, aspirated to a falcon tube, centrifuged at 2000 rpm for 5 min. Cell count performed after suspending the cells into a fresh media and stained with trypan blue, counted and used for preparation of the appropriate number of cells.

Bax = test: Western blot of protein expression in LOX IMVI cells; conditions: control = 1
Experimental: (§1) To evaluate the expression level of the apoptosis modulatory markers Bax, caspase 3 and PARP-1, western blot was performed as formerly described. Three different groups of LOX IMVI cells were permitted to grow to reach 70–80% confluence in […] flasks. The first group of LOX IMVI cells was treated with compound 3i. […] The media was taken out after 48 h, and cells underwent three rounds of ice-cold PBS washing. RIPA lysis buffer [consisting of Tris-HCl pH 7.6 (25 mM), NaCl (150 mM), EDTA (5 mM), NP-40 or Triton X-100 (1%), sodium deoxycholate (1%), SDS1 (1%)] with the proper phosphatase and a protease inhibitor was used to create the whole-cell lysate for 30 min. After centrifuging the mixture at 12,000 rpm for 20 min and sonicating it for five minutes, the supernatant was collected, split into aliquots, and kept at -80 °C. The Biuret method was used to determine protein content[27],[28]. Proteins in each matched cell lysate were denatured in 2 Laemmli buffer containing 5% β--mercaptoethanol at 95 °C for 5 min. For SDS-PAGE electrophoresis, 20 µg of protein per lane were loaded at 100 volts through a 6% stacking gel, then at 125 volts through a 10% resolving gel for around 2 h, and then transferred to a PVDF membrane using a semidry transfer apparatus (made by Cleaver Scientific) for 25 min. The PVDF membrane was first incubated for one hour at 4 °C in TBS buffer containing 0.1% Tween (TBST) and 5% fat-free milk, then overnight at 4 °C with monoclonal anti-Bax, anti-PARP-1, and anti-caspase-3 as primary antibodies (Cell Signalling Technology) at a dilution of 1:500. Membranes were first treated overnight, then three times washed in TBST buffer, then incubated at room temperature for 60 min with the corresponding HRP (horse radish peroxidase)-linked secondary antibodies (Dako). Then the substrate for the chemiluminescent Western ECL (Perkin Elmer, Waltham, MA) was added to the blot as described by the manufacturer by incubating the membranes with equal volumes of ECL solution A and ECL solution B for 1 min.

PARP-1 = test: as above; conditions: control = 1
Experimental: as §1

active caspase-3 = test: as above; conditions: control = 1
Experimental: as §1

[2] = LOX IMVI treated at IC50 concentration

O=C(O)c1cn(C2CC2)c2cc(N3CCN(C(=O)CCCN4C(=O)S/C(=C\c5ccc(F)cc5)C4=O)CC3)c(F)cc2c1=O [3i]
%G0-G1 DNA content [1, 2]: 45.53%
%G2/M DNA content [1, 2]: 9.41%
%Pre-G1 DNA content [1, 2]: 38.51%
%S DNA content [1, 2]: 45.06%
increase of percentage of cells at pre-G1 ([1]; LOX IMVI, versus control): 20 folds
Bax OD (Bax): 4.13
PARP-1 OD (PARP-1): 0.87
Caspace-3 Optical density (OD) (active caspase-3): 3.14
